Measurements as given in ChEMBL document CHEMBL4152189, “Incorporation of nitric oxide donor into 1,3-dioxyxanthones leads to synergistic anticancer activity” (Eur J Med Chem, 2018).

How the values were obtained:
Type in all cases: functional, cell-based
MDA-MB-231 = assay: Growth inhibition of human MDA-MB-231 cells after 24 hrs by MTT assay; conditions: MDA-MB-231, 24 h
HepG2 = assay: Growth inhibition of human HepG2 cells after 24 hrs by MTT assay; conditions: HepG2, 24 h
MCF7 = assay: Growth inhibition of human MCF7 cells after 24 hrs by MTT assay; conditions: MCF7, 24 h

Structure (SMILES) | IC50 (MDA-MB-231) | IC50 (HepG2) | IC50 (MCF7)
O=c1c2cc(Cl)ccc2oc2cc(OCCCCO[N+](=O)[O-])cc(O)c12 | 11.2 µM | 10.1 µM | 42.9 µM
Cc1ccc2c(=O)c3c(O)cc(OCCCCCCO[N+](=O)[O-])cc3oc2c1 | 10.3 µM | 1.28 µM | 35.1 µM
O=c1c2cc(O)ccc2oc2cc(OCCCCCO[N+](=O)[O-])cc(O)c12 | 44.6 µM | 9.91 µM | 91.2 µM
O=c1c2ccc(O)cc2oc2cc(OCCCCCCO[N+](=O)[O-])cc(O)c12 | 10.6 µM | 26.4 µM | > 200 µM
O=c1c2cc(Br)ccc2oc2cc(OCCCCO[N+](=O)[O-])cc(O)c12 | 11.2 µM | 10.1 µM | 42.9 µM
Cc1ccc2c(=O)c3c(O)cc(OCCCO[N+](=O)[O-])cc3oc2c1 | 78.4 µM | 12.8 µM | 62.8 µM
O=c1c2ccc(O)cc2oc2cc(OCCCCCCCO[N+](=O)[O-])cc(O)c12 | 51.5 µM | 76.2 µM | > 200 µM
O=c1c2cc(O)ccc2oc2cc(OCCCCO[N+](=O)[O-])cc(O)c12 | 92.6 µM | 22.3 µM | 143 µM
COc1cc2oc3cc(OCCCCCO[N+](=O)[O-])cc(O)c3c(=O)c2cc1OC | 45.6 µM | 6.35 µM | > 200 µM
COc1cccc2oc3cc(OCCCCO[N+](=O)[O-])cc(O)c3c(=O)c12 | 6.25 µM | 10.2 µM | 63 µM
O=c1c2cc(Br)ccc2oc2cc(OCCCO[N+](=O)[O-])cc(O)c12 | 43.6 µM | 14 µM | > 200 µM
O=c1c2ccc(O)cc2oc2cc(OCCCCCO[N+](=O)[O-])cc(O)c12 | 41.4 µM | 62.3 µM | 112 µM
O=c1c2ccccc2oc2cc(OCCCO[N+](=O)[O-])cc(O)c12 | 83.9 µM | 12.3 µM | > 200 µM
O=c1c2ccc(O)cc2oc2cc(OCCCO[N+](=O)[O-])cc(O)c12 | 82.7 µM | 116 µM | > 200 µM
COc1ccc2oc3cc(OCCCCCCCO[N+](=O)[O-])cc(O)c3c(=O)c2c1 | 16.2 µM | 42.1 µM | 71.2 µM
O=c1c2cc(Cl)ccc2oc2cc(OCCCCCCCO[N+](=O)[O-])cc(O)c12 | 10.2 µM | 8.13 µM | 30.8 µM
O=c1c2cc(Cl)ccc2oc2cc(OCCO[N+](=O)[O-])cc(O)c12 | 33.3 µM | 43.1 µM | 74.3 µM
COc1cc2oc3cc(OCCCO[N+](=O)[O-])cc(O)c3c(=O)c2cc1OC | 112 µM | 53.6 µM | > 200 µM
O=c1c2ccccc2oc2cc(OCCCCCO[N+](=O)[O-])cc(O)c12 | 40.7 µM | 4.08 µM | > 200 µM
Cc1ccc2c(=O)c3c(O)cc(OCCCCO[N+](=O)[O-])cc3oc2c1 | 62.9 µM | 10.6 µM | 47.7 µM

Structure (SMILES) | IC50 (MDA-MB-231) | IC50 (HepG2) | IC50 (MCF7)
O=c1c2cc(Br)ccc2oc2cc(OCCCCCCO[N+](=O)[O-])cc(O)c12 | 15 µM | 1.21 µM | 43.5 µM
COc1cccc2oc3cc(OCCCCCCO[N+](=O)[O-])cc(O)c3c(=O)c12 | 0.45 µM | 0.61 µM | 31 µM
COc1cccc2oc3cc(OCCCCCO)cc(O)c3c(=O)c12 | 41.1 µM | 23.7 µM | > 200 µM
O=c1c2cc(Br)ccc2oc2cc(OCCCCCO[N+](=O)[O-])cc(O)c12 | 11.1 µM | 2.65 µM | 73.2 µM
COc1cccc2oc3cc(OCCO[N+](=O)[O-])cc(O)c3c(=O)c12 | 11.2 µM | 21.5 µM | 104 µM
O=c1c2cc(Cl)ccc2oc2cc(OCCCO[N+](=O)[O-])cc(O)c12 | 27.8 µM | 17.4 µM | 53.4 µM
O=c1c2ccccc2oc2cc(OCCCCO[N+](=O)[O-])cc(O)c12 | 56.6 µM | 6.55 µM | > 200 µM
COc1ccc2oc3cc(OCCCCCCO[N+](=O)[O-])cc(O)c3c(=O)c2c1 | 3.05 µM | 13.6 µM | 41.1 µM
COc1ccc2oc3cc(O)cc(O)c3c(=O)c2c1 | > 200 µM | 93.2 µM | > 200 µM
O=c1c2ccccc2oc2cc(OCCCCCCO[N+](=O)[O-])cc(O)c12 | 23.5 µM | 3.17 µM | 93.1 µM
O=[N+]([O-])OCCCO [ABRUCOMSTAT] | > 200 µM | 111 µM | > 200 µM
O=[N+]([O-])OCCCCCCO | 90.4 µM | 52.6 µM | 89.7 µM
O=c1c2ccccc2oc2cc(OCCO[N+](=O)[O-])cc(O)c12 | 90.9 µM | 20.5 µM | > 200 µM
COc1cccc2oc3cc(OCCCO[N+](=O)[O-])cc(O)c3c(=O)c12 | 9.68 µM | 13.6 µM | 102 µM
Cc1ccc2c(=O)c3c(O)cc(OCCCCCO[N+](=O)[O-])cc3oc2c1 | 30.7 µM | 2.95 µM | 39.5 µM
O=c1c2cc(Cl)ccc2oc2cc(OCCCCCCO[N+](=O)[O-])cc(O)c12 | 9.74 µM | 6.03 µM | 13.3 µM
COc1cc2oc3cc(OCCO[N+](=O)[O-])cc(O)c3c(=O)c2cc1OC | 130 µM | 91.7 µM | > 200 µM
O=c1c2cc(O)ccc2oc2cc(OCCCCCCCO[N+](=O)[O-])cc(O)c12 | 74.3 µM | 15.2 µM | 112 µM
O=c1c2cc(Br)ccc2oc2cc(OCCCCCCCO[N+](=O)[O-])cc(O)c12 | 9.27 µM | 7.28 µM | 35.9 µM
COc1ccc2oc3cc(OCCCCCO[N+](=O)[O-])cc(O)c3c(=O)c2c1 | 9.29 µM | 33.3 µM | 53.4 µM

Structure (SMILES) | IC50 (MDA-MB-231) | IC50 (HepG2) | IC50 (MCF7)
Cc1ccc2c(=O)c3c(O)cc(OCCCCCCCO[N+](=O)[O-])cc3oc2c1 | 55.9 µM | 8.76 µM | 42.7 µM
COc1cc2oc3cc(OCCCCO[N+](=O)[O-])cc(O)c3c(=O)c2cc1OC | 87.4 µM | 21.2 µM | > 200 µM
O=c1c2cc(O)ccc2oc2cc(OCCCO[N+](=O)[O-])cc(O)c12 | 134 µM | 33 µM | > 200 µM
COc1cc2oc3cc(O)cc(O)c3c(=O)c2cc1OC | > 200 µM | 123 µM | > 200 µM
COc1cccc2oc3cc(O)cc(O)c3c(=O)c12 | 66 µM | 32.5 µM | > 200 µM
COc1ccc2oc3cc(OCCCCO[N+](=O)[O-])cc(O)c3c(=O)c2c1 | 22.3 µM | 52.1 µM | 83.2 µM
O=c1c2cc(O)ccc2oc2cc(OCCCCCCO[N+](=O)[O-])cc(O)c12 | 18.5 µM | 11.4 µM | 53.7 µM
O=c1c2cc(O)ccc2oc2cc(O)cc(O)c12 | > 200 µM | > 200 µM | > 200 µM
COc1cc2oc3cc(OCCCCCCO[N+](=O)[O-])cc(O)c3c(=O)c2cc1OC | 19.8 µM | 1.83 µM | 98.2 µM
COc1cc2oc3cc(OCCCCCCCO[N+](=O)[O-])cc(O)c3c(=O)c2cc1OC | 67.6 µM | 13.2 µM | 163 µM
O=c1c2ccc(O)cc2oc2cc(OCCCCO[N+](=O)[O-])cc(O)c12 | 66.7 µM | 96 µM | > 200 µM
O=c1c2ccc(O)cc2oc2cc(OCCO[N+](=O)[O-])cc(O)c12 | 108 µM | 160 µM | > 200 µM
O=c1c2ccc(O)cc2oc2cc(O)cc(O)c12 | > 200 µM | > 200 µM | > 200 µM
O=c1c2ccccc2oc2cc(OCCCCCCCO[N+](=O)[O-])cc(O)c12 | 43.5 µM | 5.24 µM | 153 µM
COc1cccc2oc3cc(OCCCCCCCO[N+](=O)[O-])cc(O)c3c(=O)c12 | 4.29 µM | 5.26 µM | 53.5 µM
O=[N+]([O-])OCCCCO | 157 µM | 90.8 µM | > 200 µM
O=c1c2cc(Cl)ccc2oc2cc(OCCCCCO[N+](=O)[O-])cc(O)c12 | 7.79 µM | 5.32 µM | 25.1 µM
COc1ccc2oc3cc(OCCCO[N+](=O)[O-])cc(O)c3c(=O)c2c1 | 35.6 µM | 63.5 µM | 98.2 µM
